Tests used:
[1] = system: NZB/W F1 female mice; assay: Renal histopathological evaluation in SLE model mouse; type: in vivo
Experimental: (§1) 80 NZB/W F1 female mice (four weeks old) were purchased from Jackson Laboratory and maintained in an SPF breeding room with five mice per cage. Their weight and urine protein were measured at 24 weeks after birth (right before administration), and then all the animals except those having too much urine protein were divided into groups as shown in a table 2 below such that the urine protein and weight might be evenly distributed among the groups.
(§2) Then, the mice were administered as described in the table 2 once a day for about 19 weeks from 24 weeks after birth to 42 weeks after birth.
To identify an effect of the inventive pharmaceutical composition on kidney in the SLE disease model, a histopathological evaluation was performed.
First of all, a half of a left kidney of a mouse collected during the autopsy was fixed with 10% neutral buffered formalin and prepared as a paraffin block. Then, a histopathological evaluation was performed by means of hematoxylin and eosin staining (H&E, BBC Biochemical, Mount Vernon, Wash., USA), periodic acid-schiff staining (PAS, BBC Biochemical) and Masson's trichrome staining (BBC Biochemical).

[2] = system: NZB/W F1 female mice; assay: IgG and C3 depositions in glomerulus (fluorescence immunostaining); type: in vivo, mouse
Experimental: as §1, §2
To identify a therapeutic effect of the inventive pharmaceutical composition on kidney in the SLE disease model, a degree of IgG and C3 depositions in glomerulus was measured.
With regard to a remaining half of the left kidney collected during the autopsy performed in Example 9, a frozen tissue block was prepared for a frozen section by means of an OCT compound, and then IgG and C3 fluorescence immunostaining was performed by means of a method known in the technical field to which the present invention pertains.
Specifically, the frozen tissue was sectioned in a thickness of 4 μm, then fixed in cold acetone for five minutes, and then washed in phosphate buffered saline (PBS) twice for five minutes. To get rid of a non-specific reaction, a resulting tissue was blocked by means of the PBS solution with the addition of 1% bovine serum albumin and 0.05% tween-20 for 30 minutes, and then reacted at room temperature for one hour by means of FITC-conjugated goat anti-mouse IgG antibodies (1:200, AP308F, Merck Millipore) or FITC-conjugated goat anti-mouse C3 antibodies (1:100, Cappel 55500, MP Bio). After that, the resulting tissue was washed with the PBS for five minutes three times, then covered with a cover glass by means of a mounting medium including DAPI, and then observed by means of a confocal laser scanning microscopy (LSM 700, ZEISS).

[3] = system: NZB/W F1 female mice; assay: T cell populations in spleen (FACS) in SLE disease mouse; type: in vivo
Experimental: as §1, §2
To evaluate a pattern of immune T cell populations in spleen in the SLE disease mouse, a ratio of CD3, CD4, CD8a and CTLA4 expressions as well as a Treg proportion/Th1, Th2, Th17 and Treg master regulator (T-bet, GATA-3, ROR-γt, Foxp3) expression patterns were measured.
To that end, splenocytes were first obtained from the spleen obtained during the mouse autopsy by means of a 70 μm cell strainer (BD), and then red blood cells were hemolyzed by means of an EL buffer and washed with FACS buffer solution (5% BSA/PBS). After that, staining was performed at a concentration recommended by a manufacturer by means of PerCP-cy5.5-conjugated anti-mouse CD3 (ebioscience, Sandiego, Calif., USA), PE-Cyanine7-conjugated anti-mouse CD8a (ebioscience), FITC-conjugated anti-CD4 (BD), APC-conjugated anti-mouse CD25 (BD), PE-conjugated anti-mouse FoxP3 (BD), PE-conjugated anti-mouse RORγt (ebioscience), PE-conjugated anti-mouse T-bet (ebioscience), PE-conjugated anti-mouse GATA-3 (ebioscience), and PE-conjugated anti-mouse CTLA4 (ebioscience) antibodies.
The splenocytes and cell surface marker antibodies were immediately reacted. Before reacting FoxP3, RORγt, T-bet and GATA3 antibodies, the splenocytes were fixed by means of a FoxP3/Transcription Factor staining buffer set, then permeabilized, and then reacted with the antibodies. A ratio of CD4:CD8 in CD3 cells as well as a ratio of CD4+CD8-cells, CD4−CD8+ cells, CD4+CD8+ cells and double negative T cells were respectively measured and compared between the groups. To identify a ratio of FoxP3, RORγt, T-bet and GATA3, which were master regulators of Treg, Th17, Th1 and Th2, a ratio of CD4+CD25+FoxP3+ cells, CD4+CD25+RORγt+ cells, CD4+CD25+ T-bet+ cells and CD4+CD25+GATA3+ cells was respectively measured.

[4] = system: NZB/W F1 female mice; assay: Serum CXCL10 and CCL2 in SLE disease mouse; type: in vivo; conditions: 36 weeks old
Experimental: as §1, §2
Meanwhile, when a level of CXCL10 (IFN-inducible protein 10, IP-10) and CCL2 (MCP-1) in serum was measured at 36 weeks old, it was identified that the level of CXCL10 in serum was decreased in all the experimental groups, and the level of CCL2 in serum was decreased in the 50 mg/kg dosed group (FIG. 14).

[5] = system: NZB/W F1 female mice; assay: Ratio of PreB and ProB cells in marrow (FACS); type: in vivo, mouse; conditions: experimental groups vs control group
Experimental: as §1, §2
A ratio of pro B (B220+, CD43+) and pre B (B220+, CD43−) cells in mouse marrow cells was measured by means of FACS. To that end, the marrow cells were obtained by flushing a femur with PBS comprising 5% BSA. After that, red blood cells were hemolyzed by means of EL buffer, then washed with FACS buffer (5% BSA/PBS), and then stained with FITC-conjugated anti-mouse CD43 antibodies (ebioscience) and PE-conjugated anti-mouse […] antibodies (ebioscience), such that a ratio of Pre B (B220+CD43-) and Pro B (B220+CD43+) cells was measured.

[6] = system: NZB/W F1 female mice; assay: BUN and serum creatinine in SLE model mouse; type: in vivo
Experimental: as §1, §2
The fresh urine of mice was collected before and after administration every two weeks, while blood collection was performed before and after administration every four weeks. The serum was prepared by centrifugation of the collected blood and then kept at −70° C.
To evaluate a kidney function of the SLE model mouse, BUN and creatine concentrations were measured from a mouse serum collected every month (at 24, 28, 32, 36 and 40 weeks old and during autopsy) by means of a Dri-CHEM 3000 colorimetric analyzer (Fuji film).

[7] = 50 mg/kg dosed group vs control group
[8] = spleen, CD3+ gated, experimental groups
[9] = experimental groups vs control groups
[10] = experimental groups, 40 weeks old

SMILES: O=C(NO)c1ccc(CN(C(=O)N2CCOCC2)c2cccc(C(F)(F)F)c2)cc1 [Compound 374, N-(4-(hydroxycarbamoyl)benzyl)-N-(3-(trifluoromethyl)phenyl)morpholine-4-carboxamide]
- infiltration of inflammatory cells in kidney (marks 0-4) ([1]; 30 and 50 mg/kg dosed groups): remarkably excellent effect of reducing the infiltration of inflammatory cells
- degree of infiltration of inflammatory cells in kidney (marks 0-4) ([1]; experimental groups): decreased
- level of C3 depositions in kidney ([2]; 50 mg/kg dosed group): remarkably decreased
- level of IgG depositions in kidney ([2]; 50 mg/kg dosed group): remarkably decreased
- level of C3 depositions in kidney ([2]; experimental groups): decreased
- level of IgG depositions in kidney ([2]; experimental groups): decreased
- ratio of CD4+T-bet+/CD4+GATA-3+ ([3]; 30 mg/kg and 50 mg/kg dosed groups vs control group): more significantly decreased
- T-bet expression in CD4+ cells [3, 7]: significantly lower
- ratio of CD4+CD25+ cells/CD4+ cells [3, 7]: significantly lower
- ratio of CD25+ cells [3, 7]: significantly lower
- ratio of CD4−CD8+ T cells [3, 8]: increased
- ratio of CD4−CD8− T cells [3, 8]: decreased
- ratio of CD4+CD25+Foxp3+, CD4+CD25+RORγt+, CD4+CD25+ T-bet+ and CD4+CD25+GATA-3+ cells ([3]; spleen, between the groups): a significance between the groups was not observed yet
- ratio of CD4+CD8−: CD4−CD8+ T cells ([3]; spleen, experimental groups): tended to decrease as an administered dose was increased
- level of CCL2 in serum ([4]; 50 mg/kg dosed group): decreased
- level of CXCL10 in serum ([4]; all the experimental groups): decreased
- ratio of pre B and pro B cells in marrow [5]: significant change in the ratio of pre B and pro B cells was not observed
- BUN concentration [6, 9]: decreased
- serum creatine concentration [6, 9]: decreased
- BUN concentration [6, 10]: remarkably excellent effect of reducing
- serum creatine concentration [6, 10]: remarkably excellent effect of reducing

Source: US11571426B2, “Compositions for preventing or treating lupus” (CHONG KUN DANG PHARMACEUTICAL CORP., priority 2017, dated 2023)
